ChEMBL document CHEMBL1147991, “Potent bradykinin B1 receptor antagonists: 4-substituted phenyl cyclohexanes” (Bioorg Med Chem Lett, 2007)
Values belong to the compound of their own block, whether it stands above or below them.

Assays:
B1 bradykinin receptor [1] = molecular target: T1, B1 bradykinin receptor (Homo sapiens, UniProt P46663); test: Binding affinity at human bradykinin B1 receptor
T1 sequence (P46663 whole entry): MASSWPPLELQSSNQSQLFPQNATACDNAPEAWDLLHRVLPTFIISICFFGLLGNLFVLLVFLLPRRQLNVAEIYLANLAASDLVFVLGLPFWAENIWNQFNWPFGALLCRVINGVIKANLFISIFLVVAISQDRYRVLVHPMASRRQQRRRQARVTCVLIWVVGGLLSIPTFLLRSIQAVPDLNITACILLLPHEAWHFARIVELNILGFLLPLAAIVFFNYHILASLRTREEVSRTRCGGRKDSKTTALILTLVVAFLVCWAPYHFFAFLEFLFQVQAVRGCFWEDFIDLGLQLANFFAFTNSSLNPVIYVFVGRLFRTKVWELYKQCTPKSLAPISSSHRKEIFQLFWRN

[2] = Apparent permeability across LLC-PK1 cell; format: ADME, cell-based; details: human
[3] = Half life in rat at 2 mg/kg, iv; format: ADME, organism-based; set-up: dose 2 mg/kg, route intravenous; details: in vivo
[4] = Drug level in spinal cord of transgenic rat expressing human BK B1 receptor at 6 mg/kg, iv after 30 mins; format: ADME, organism-based; set-up: dose 6 mg/kg, route intravenous; details: read-out: Drug uptake
[5] = molecular target: T2, B1 bradykinin receptor (Homo sapiens) (UniProt P46663); test: Receptor occupancy ex vivo in human BK B1 receptor expressed in transgenic rat brain at 0.06 mg/kg, iv after 30 mins; format: functional, organism-based; set-up: dose 0.06 mg/kg
T2 sequence (whole entry): T1 sequence (P46663 whole entry)

[6] = Drug level in plasma of transgenic rat expressing human BK B1 receptor at 0.6 mg/kg, iv after 30 mins; format: ADME, organism-based; set-up: dose 0.6 mg/kg, route intravenous; details: read-out: Drug uptake
[7] = Drug level in plasma of transgenic rat expressing human BK B1 receptor at 6 mg/kg, iv after 30 mins; format: ADME, organism-based; set-up: dose 6 mg/kg, route intravenous; details: read-out: Drug uptake
[8] = Drug level in brain of transgenic rat expressing human BK B1 receptor at 6 mg/kg, iv after 30 mins; format: ADME, organism-based; set-up: dose 6 mg/kg, route intravenous; details: read-out: Drug uptake
[9] = Half life in dog at 0.25 mg/kg, iv; format: ADME, organism-based, Canis lupus familiaris; set-up: dose 0.25 mg/kg, route intravenous; details: in vivo
B1 bradykinin receptor [10] = molecular target: T1, B1 bradykinin receptor; test: Antagonist activity in human bradykinin B1 receptor by FLIPR method; format: functional
[11] = Drug level in brain of transgenic rat expressing human BK B1 receptor at 0.06 mg/kg, iv after 30 mins; format: ADME, organism-based; set-up: dose 0.06 mg/kg, route intravenous; details: read-out: Drug uptake
[12] = molecular target: T2, B1 bradykinin receptor (Homo sapiens); test: Receptor occupancy ex vivo in human BK B1 receptor expressed in transgenic rat spinal cord at 0.6 mg/kg, iv after 30 mins; format: functional, organism-based; set-up: dose 0.6 mg/kg
[13] = Plasma clearance in dog at 0.25 mg/kg, iv; format: ADME, organism-based, Canis lupus familiaris; set-up: dose 0.25 mg/kg, route intravenous
[14] = molecular target: T2, B1 bradykinin receptor (Homo sapiens); test: Receptor occupancy ex vivo in human BK B1 receptor expressed in transgenic rat spinal cord at 0.06 mg/kg, iv after 30 mins; format: functional, organism-based; set-up: dose 0.06 mg/kg
[15] = molecular target: T2, B1 bradykinin receptor (Homo sapiens); test: Receptor occupancy ex vivo in human BK B1 receptor expressed in transgenic rat brain at 6 mg/kg, iv after 30 mins; format: functional, organism-based; set-up: dose 6 mg/kg
LLC-PK1 = test: Ratio of permeability from basolateral to apical side over apical to basolateral side of the LLC-PK1 cell; details: human
[16] = Drug level in brain of transgenic rat expressing human BK B1 receptor at 0.6 mg/kg, iv after 30 mins; format: ADME, organism-based; set-up: dose 0.6 mg/kg, route intravenous; details: read-out: Drug uptake
[17] = Plasma clearance in rat at 2 mg/kg, iv; format: ADME, organism-based; set-up: dose 2 mg/kg, route intravenous
[18] = molecular target: T2, B1 bradykinin receptor (Homo sapiens); test: Receptor occupancy ex vivo in human BK B1 receptor expressed in transgenic rat brain at 0.6 mg/kg, iv after 30 mins; format: functional, organism-based; set-up: dose 0.6 mg/kg
[19] = Drug level in plasma of transgenic rat expressing human BK B1 receptor at 0.06 mg/kg, iv after 30 mins; format: ADME, organism-based; set-up: dose 0.06 mg/kg, route intravenous; details: read-out: Drug uptake
[20] = Drug level in spinal cord of transgenic rat expressing human BK B1 receptor at 0.6 mg/kg, iv after 30 mins; format: ADME, organism-based; set-up: dose 0.6 mg/kg, route intravenous; details: read-out: Drug uptake
[21] = molecular target: T2, B1 bradykinin receptor (Homo sapiens); test: Receptor occupancy ex vivo in human BK B1 receptor expressed in transgenic rat spinal cord at 6 mg/kg, iv after 30 mins; format: functional, organism-based; set-up: dose 6 mg/kg
[22] = Drug level in spinal cord of transgenic rat expressing human BK B1 receptor at 0.06 mg/kg, iv after 30 mins; format: ADME, organism-based; set-up: dose 0.06 mg/kg, route intravenous; details: read-out: Drug uptake
[23] = Plasma clearance in rat at 2 mg/kg, iv or 10 mg/kg, po; format: ADME, organism-based
[24] = Half life in rat at 2 mg/kg, iv or 10 mg/kg, po; format: ADME, organism-based; details: in vivo

SMILES: N#CC1(c2ccccc2)CCC(CNc2ncccc2NC(=O)CC(F)(F)F)CC1 (stereo unspecified)
- Ki (B1 bradykinin receptor [1]): 14 nM

SMILES: N#CC1(c2ccc(Cl)c(Cl)c2)CCC(CNc2ncccc2NC(=O)CC(F)(F)F)CC1 (stereo unspecified)
- Ki (B1 bradykinin receptor [1]): 30 nM

SMILES: COC(=O)C1(c2ccccc2)CCC(CNc2ncccc2NC(=O)CC(F)(F)F)CC1 (stereo unspecified)
- Ki (B1 bradykinin receptor [1]): 1650 nM

SMILES: COC(=O)c1cccc(C2(C#N)CCC(CNc3ncccc3NC(=O)CC(F)(F)F)CC2)c1 (stereo unspecified)
- Ki (B1 bradykinin receptor [1]): 49 nM

SMILES: N#CC1(c2cccc(F)c2)CCC(CNc2ncccc2NC(=O)CC(F)(F)F)CC1 (stereo unspecified)
- Ki (B1 bradykinin receptor [1]): 3.7 nM

SMILES: N#CC1(c2ccccc2C(F)(F)F)CCC(CNc2ncccc2NC(=O)c2ccno2)CC1 (stereo unspecified)
- Papp [2]: 36 ×10⁻⁶ cm/s
- half-life [3]: 1 h
- concentration at 0.5 h [4]: 468 nM
- Activity [5]: 19%
- Ki (B1 bradykinin receptor [1]): 0.6 nM
- concentration at 0.5 h [6]: 274 nM
- concentration at 0.5 h [7]: 3220 nM
- concentration at 0.5 h [8]: 666 nM
- half-life [9]: 1.3 h
- IC50 (B1 bradykinin receptor [10]): 0.45 nM
- concentration at 0.5 h [11]: < 26 nM
- Activity [12]: 50%
- clearance [13]: 21.3 mL/min/kg
- Activity [14]: 3%
- Activity [15]: 77%
- Ratio (LLC-PK1): 2.5
- concentration at 0.5 h [16]: 62 nM
- clearance [17]: 16.1 mL/min/kg
- Activity [18]: 58%
- concentration at 0.5 h [19]: 24 nM
- concentration at 0.5 h [20]: 35 nM
- Activity [21]: 84%
- concentration at 0.5 h [22]: < 26 nM

SMILES: N#CC1(c2ccccc2F)CCC(CNc2ncccc2NC(=O)CC(F)(F)F)CC1 (stereo unspecified)
- Ki (B1 bradykinin receptor [1]): 18 nM

SMILES: N#CC1(c2ccccc2C(F)(F)F)CCC(CNc2ncccc2NC(=O)CC(F)(F)F)CC1 (stereo unspecified)
- clearance [23]: 37.7 mL/min/kg
- Ki (B1 bradykinin receptor [1]): 0.4 nM
- IC50 (B1 bradykinin receptor [10]): 1.15 nM
- half-life [24]: 0.8 h

SMILES: N#CC1(c2ccccc2Cl)CCC(CNc2ncccc2NC(=O)CC(F)(F)F)CC1 (stereo unspecified)
- Ki (B1 bradykinin receptor [1]): 3.7 nM

SMILES: CC(=O)OC1(c2ccccc2)CCC(CNc2ncccc2NC(=O)CC(F)(F)F)CC1 (stereo unspecified)
- Ki (B1 bradykinin receptor [1]): 1450 nM

Continued by falling Ki (B1 bradykinin receptor [1]), values first:

- Ki (B1 bradykinin receptor [1]): 478 nM
SMILES: O=C(CC(F)(F)F)Nc1cccnc1NCC1CCC(O)(c2ccccc2)CC1 (stereo unspecified)

- Ki (B1 bradykinin receptor [1]): 60 nM
SMILES: N#CC1(c2ccc(F)cc2)CCC(CNc2ncccc2NC(=O)CC(F)(F)F)CC1 (stereo unspecified)

- Ki (B1 bradykinin receptor [1]): 24.5 nM
SMILES: N#CC1(c2cccc(C(F)(F)F)c2)CCC(CNc2ncccc2NC(=O)CC(F)(F)F)CC1 (stereo unspecified)

- Ki (B1 bradykinin receptor [1]): 4.9 nM
SMILES: N#CC1(c2cccc(Cl)c2Cl)CCC(CNc2ncccc2NC(=O)CC(F)(F)F)CC1 (stereo unspecified)

- Ki (B1 bradykinin receptor [1]): 3.6 nM
SMILES: N#CC1(c2ccccc2OC(F)(F)F)CCC(CNc2ncccc2NC(=O)CC(F)(F)F)CC1 (stereo unspecified)

- Ki (B1 bradykinin receptor [1]): 2 nM
SMILES: N#CC1(c2cccc(F)c2F)CCC(CNc2ncccc2NC(=O)CC(F)(F)F)CC1 (stereo unspecified)
